Measurements taken from patent US6737383B1, “Herbicidal oxadiazolidines” (priority 1999, dated 2004).

Key:
cocklebur = test: Test B pre/postemergence cocklebur; format: in vivo, Xanthium strumarium; settings: Preemergence
Outline: (§1)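 Herbicidal effect was estimated by eye on a ten-point control scale after plants spent twelve to sixteen days in a greenhouse following soil or foliar treatment. Foliar sprays targeted plants at one to four leaves; all doses were formulated in a non-phytotoxic solvent with surfactant.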

giant foxtail = test: Test B pre/postemergence giant foxtail; format: in vivo, Setaria faberii; settings: Preemergence
Outline: as §1

morningglory = test: Test B pre/postemergence morningglory; format: in vivo, Ipomoea hederacea; settings: Preemergence
Outline: as §1

surinam grass = test: Test B pre/postemergence surinam grass; format: in vivo, Brachiaria decumbens; settings: Preemergence
Outline: as §1

rape = test: Test B pre/postemergence rape; format: in vivo, Brassica napus; settings: Preemergence
Outline: as §1

purple nutsedge = test: Test B pre/postemergence purple nutsedge; format: in vivo, Cyperus rotundus; settings: Preemergence
Outline: as §1

velvetleaf = test: Test B pre/postemergence velvetleaf; format: in vivo, Abutilon theophrasti; settings: Preemergence
Outline: as §1

wheat = test: Test B pre/postemergence wheat; format: in vivo, Triticum aestivum; settings: Preemergence
Outline: as §1

corn = test: Test B pre/postemergence corn; format: in vivo, Zea mays; settings: Preemergence
Outline: as §1

bamyardgrass = test: Test B flood test barnyardgrass; format: in vivo, Echinochloa crus-galli
Outline: (§2)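 Read-out is a visual response score from 0 (no effect) to 10 (complete control), assigned by comparison with untreated controls. Treatment was applied at the 2-leaf stage, and plants stayed in the greenhouse for twelve to sixteen days before scoring.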

crabgrass = test: Test B pre/postemergence crabgrass; format: in vivo, Digitaria sanguinalis; settings: Preemergence
Outline: as §1

wild oat = test: Test B pre/postemergence wild oat; format: in vivo, Avena fatua; settings: Preemergence
Outline: as §1

pigweed = test: Test B pre/postemergence pigweed; format: in vivo, Amaranthus retroflexus; settings: Preemergence
Outline: as §1

sugar beet = test: Test B pre/postemergence sugar beet; format: in vivo, Beta vulgaris; settings: Preemergence
Outline: as §1

rice = test: Test B flood test rice; format: in vivo, Oryza sativa
Outline: as §2

bedstraw = test: Test B pre/postemergence bedstraw; format: in vivo, Galium aparine; settings: Preemergence
Outline: as §1

soybean = test: Test B pre/postemergence soybean; format: in vivo, Glycine max; settings: Preemergence
Outline: as §1

smallflower flatsedge = test: Test B flood test smallflower flatsedge; format: in vivo, Cyperus difformis
Outline: as §2

blackgrass = test: Test B pre/postemergence blackgrass; format: in vivo, Alopecurus myosuroides; settings: Preemergence
Outline: as §1

duck salad = test: Test B flood test duck salad; format: in vivo, Heteranthera limosa
Outline: as §2

[1] = Rate 62 g/ha, scale of 0 to 10 where 0 is no effect and 10 is complete control
[2] = Rate 125 g/ha, scale of 0 to 10 where 0 is no effect and 10 is complete control
[3] = Rate 250 g/ha, scale 0 (no effect) to 10 (complete control)
[4] = Rate 500 g/ha, scale 0 to 10 (0 no effect, 10 complete control)
[5] = Pre-emergence, Rate 62 g/ha, scale 0 to 10, 0 is no effect, 10 is complete control
[6] = Rate 125 g/ha, Pre-emergence section (flood test species), scale 0 to 10, 0 no effect, 10 complete control
[7] = Rate 250 g/ha, Pre-emergence (flood test species), scale 0 to 10, 0 is no effect, 10 is complete control
[8] = Rate 500 g/ha, Pre-emergence section of Table B, 0 to 10 scale (0 no effect, 10 complete control)

CC(C)N(C(=O)n1oc(=O)n(C(C)C2=NOCC2)c1=O)c1ccc(F)cc1 (racemic) [Compound 721]
0: Cocklebur plant response rating (cocklebur; [1]) | Plant response rating, Cocklebur (cocklebur; [2]) | Nutsedge plant response rating (purple nutsedge; [1]) | Plant response rating, Nutsedge (purple nutsedge; [2]) | Nutsedge plant response rating (purple nutsedge; [3]) | Velvetleaf plant response rating (velvetleaf; [1]) | Wheat plant response rating (wheat; [1]) | Corn plant response rating (corn; [1]) | Barnyardgrass plant response rating (bamyardgrass; [5]) | Barnyardgrass plant response rating (bamyardgrass; [6]) | Barnyardgrass plant response rating (bamyardgrass; [7]) | Barnyardgrass plant response rating (bamyardgrass; [8]) | Rice plant response rating (rice; [5]) | Rice plant response rating (rice; [6]) | Rice plant response rating (rice; [7]) | Rice plant response rating (rice; [8]) | Soybean plant response rating (soybean; [1]) | Plant response rating, Soybean (soybean; [2]) | Soybean plant response rating (soybean; [3]) | S. Flatsedge plant response rating (smallflower flatsedge; [5]) | S. Flatsedge plant response rating (smallflower flatsedge; [6]) | S. Flatsedge plant response rating (smallflower flatsedge; [7]) | S. Flatsedge plant response rating (smallflower flatsedge; [8]) | Ducksalad plant response rating (duck salad; [5]) | Ducksalad plant response rating (duck salad; [6]) | Ducksalad plant response rating (duck salad; [7]) | Ducksalad plant response rating (duck salad; [8])
10: Plant response rating, Giant foxtail (giant foxtail; [2]) | Giant foxtail plant response rating (giant foxtail; [3]) | Giant foxtail plant response rating (giant foxtail; [4]) | B. signalgrass plant response rating (surinam grass; [4]) | Rape plant response rating (rape; [4]) | Velvetleaf plant response rating (velvetleaf; [4]) | Wild oats plant response rating (wild oat; [4]) | Plant response rating, Redroot pigweed (pigweed; [2]) | Redroot pigweed plant response rating (pigweed; [3]) | Redroot pigweed plant response rating (pigweed; [4]) | Plant response rating, Bedstraw (bedstraw; [2]) | Bedstraw plant response rating (bedstraw; [3]) | Bedstraw plant response rating (bedstraw; [4]) | Plant response rating, Blackgrass (blackgrass; [2]) | Blackgrass plant response rating (blackgrass; [3]) | Blackgrass plant response rating (blackgrass; [4])
6: Wild oats plant response rating (wild oat; [1])
8: Plant response rating, B. signalgrass (surinam grass; [2]) | B. signalgrass plant response rating (surinam grass; [3]) | Velvetleaf plant response rating (velvetleaf; [3]) | Wheat plant response rating (wheat; [4]) | Corn plant response rating (corn; [4]) | Plant response rating, Wild oats (wild oat; [2]) | Wild oats plant response rating (wild oat; [3]) | Sugarbeets plant response rating (sugar beet; [4])
5: Morningglory plant response rating (morningglory; [4]) | Plant response rating, Velvetleaf (velvetleaf; [2]) | Corn plant response rating (corn; [3])
9: Giant foxtail plant response rating (giant foxtail; [1]) | Plant response rating, Rape (rape; [2]) | Rape plant response rating (rape; [3]) | Crabgrass plant response rating (crabgrass; [1]) | Plant response rating, Crabgrass (crabgrass; [2]) | Crabgrass plant response rating (crabgrass; [3]) | Crabgrass plant response rating (crabgrass; [4]) | Redroot pigweed plant response rating (pigweed; [1]) | Blackgrass plant response rating (blackgrass; [1])
3: Nutsedge plant response rating (purple nutsedge; [4]) | Plant response rating, Wheat (wheat; [2]) | Wheat plant response rating (wheat; [3]) | Plant response rating, Corn (corn; [2]) | Sugarbeets plant response rating (sugar beet; [1]) | Bedstraw plant response rating (bedstraw; [1])
2: Cocklebur plant response rating (cocklebur; [3]) | Cocklebur plant response rating (cocklebur; [4]) | Plant response rating, Morningglory (morningglory; [2]) | Morningglory plant response rating (morningglory; [3])
7: B. signalgrass plant response rating (surinam grass; [1]) | Plant response rating, Sugarbeets (sugar beet; [2]) | Sugarbeets plant response rating (sugar beet; [3]) | Soybean plant response rating (soybean; [4])
1: Morningglory plant response rating (morningglory; [1]) | Rape plant response rating (rape; [1])
